Laboratory results taken from ChEMBL document CHEMBL3991601, “The target landscape of clinical kinase drugs” (Science, 2017).
Calls of active or inactive are those of the source. For most assays here, no stated cut-off is given here; in the data, actives have a measured Kd and inactives only a lower limit.

What was measured:
[1] = target: Tyrosine-protein kinase CSK (Homo sapiens, UniProt P41240)
[2] = target: T1, Dual specificity mitogen-activated protein kinase kinase 6 (Homo sapiens, UniProt P52564)
T1 sequence (P52564 whole entry): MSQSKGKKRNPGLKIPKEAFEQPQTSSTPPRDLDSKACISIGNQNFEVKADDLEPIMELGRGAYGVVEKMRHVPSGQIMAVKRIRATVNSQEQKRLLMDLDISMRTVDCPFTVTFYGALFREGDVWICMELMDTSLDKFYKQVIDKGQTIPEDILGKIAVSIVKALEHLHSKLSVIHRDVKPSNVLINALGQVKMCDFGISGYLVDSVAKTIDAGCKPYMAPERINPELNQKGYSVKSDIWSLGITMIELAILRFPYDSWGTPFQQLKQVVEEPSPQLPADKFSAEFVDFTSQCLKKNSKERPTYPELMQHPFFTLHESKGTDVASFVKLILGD

[3] = target: T2, Mitogen-activated protein kinase kinase kinase 5 (Homo sapiens, UniProt Q99683)
T2 sequence (Q99683 whole entry): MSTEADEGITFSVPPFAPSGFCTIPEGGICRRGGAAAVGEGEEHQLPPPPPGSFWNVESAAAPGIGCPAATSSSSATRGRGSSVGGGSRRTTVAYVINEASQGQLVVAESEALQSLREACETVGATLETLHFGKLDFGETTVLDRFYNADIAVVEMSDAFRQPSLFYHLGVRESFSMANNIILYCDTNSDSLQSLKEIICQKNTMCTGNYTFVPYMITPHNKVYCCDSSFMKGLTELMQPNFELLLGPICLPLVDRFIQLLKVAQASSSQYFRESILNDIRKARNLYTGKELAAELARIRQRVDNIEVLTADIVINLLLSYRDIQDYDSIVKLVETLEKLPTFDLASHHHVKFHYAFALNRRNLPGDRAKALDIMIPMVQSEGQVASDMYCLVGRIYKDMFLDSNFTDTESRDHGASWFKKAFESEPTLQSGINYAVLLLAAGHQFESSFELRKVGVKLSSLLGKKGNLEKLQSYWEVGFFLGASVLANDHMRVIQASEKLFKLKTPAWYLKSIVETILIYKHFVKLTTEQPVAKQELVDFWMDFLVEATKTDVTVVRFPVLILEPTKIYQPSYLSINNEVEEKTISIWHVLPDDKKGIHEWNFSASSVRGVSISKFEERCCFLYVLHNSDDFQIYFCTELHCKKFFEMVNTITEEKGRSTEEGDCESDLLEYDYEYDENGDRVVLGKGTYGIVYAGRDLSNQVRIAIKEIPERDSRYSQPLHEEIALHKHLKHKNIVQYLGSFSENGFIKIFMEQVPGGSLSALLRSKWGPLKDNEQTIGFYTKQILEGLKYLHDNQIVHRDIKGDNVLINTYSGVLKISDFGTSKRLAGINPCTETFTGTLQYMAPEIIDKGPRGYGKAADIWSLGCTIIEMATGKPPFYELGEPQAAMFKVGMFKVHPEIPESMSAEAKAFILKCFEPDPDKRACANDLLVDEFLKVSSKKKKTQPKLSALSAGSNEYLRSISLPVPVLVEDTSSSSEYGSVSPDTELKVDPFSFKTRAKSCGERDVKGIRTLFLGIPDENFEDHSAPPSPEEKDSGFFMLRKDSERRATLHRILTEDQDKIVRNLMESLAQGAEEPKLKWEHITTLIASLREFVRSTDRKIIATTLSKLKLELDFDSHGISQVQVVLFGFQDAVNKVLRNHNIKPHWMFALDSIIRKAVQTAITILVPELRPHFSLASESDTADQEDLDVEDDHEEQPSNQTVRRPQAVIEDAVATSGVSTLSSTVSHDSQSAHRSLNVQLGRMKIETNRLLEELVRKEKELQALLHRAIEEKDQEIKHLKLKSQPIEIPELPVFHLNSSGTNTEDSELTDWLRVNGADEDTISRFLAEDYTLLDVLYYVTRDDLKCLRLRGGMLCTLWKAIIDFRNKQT

[4] = target: Aurora kinase B (Homo sapiens, UniProt Q96GD4)
Chain of Aurora kinase B (Q96GD4 whole entry): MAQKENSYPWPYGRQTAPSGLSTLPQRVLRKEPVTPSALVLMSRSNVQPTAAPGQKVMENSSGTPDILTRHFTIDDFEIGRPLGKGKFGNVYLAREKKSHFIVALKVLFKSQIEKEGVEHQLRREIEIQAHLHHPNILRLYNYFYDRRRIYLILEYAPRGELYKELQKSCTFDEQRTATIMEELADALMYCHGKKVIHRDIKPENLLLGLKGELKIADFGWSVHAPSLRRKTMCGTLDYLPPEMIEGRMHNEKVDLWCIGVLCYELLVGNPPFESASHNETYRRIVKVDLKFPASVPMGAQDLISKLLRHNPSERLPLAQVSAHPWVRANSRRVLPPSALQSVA

[5] = target: Tyrosine-protein kinase Fyn (Homo sapiens, UniProt P06241)
Chain of Tyrosine-protein kinase Fyn (P06241 whole entry): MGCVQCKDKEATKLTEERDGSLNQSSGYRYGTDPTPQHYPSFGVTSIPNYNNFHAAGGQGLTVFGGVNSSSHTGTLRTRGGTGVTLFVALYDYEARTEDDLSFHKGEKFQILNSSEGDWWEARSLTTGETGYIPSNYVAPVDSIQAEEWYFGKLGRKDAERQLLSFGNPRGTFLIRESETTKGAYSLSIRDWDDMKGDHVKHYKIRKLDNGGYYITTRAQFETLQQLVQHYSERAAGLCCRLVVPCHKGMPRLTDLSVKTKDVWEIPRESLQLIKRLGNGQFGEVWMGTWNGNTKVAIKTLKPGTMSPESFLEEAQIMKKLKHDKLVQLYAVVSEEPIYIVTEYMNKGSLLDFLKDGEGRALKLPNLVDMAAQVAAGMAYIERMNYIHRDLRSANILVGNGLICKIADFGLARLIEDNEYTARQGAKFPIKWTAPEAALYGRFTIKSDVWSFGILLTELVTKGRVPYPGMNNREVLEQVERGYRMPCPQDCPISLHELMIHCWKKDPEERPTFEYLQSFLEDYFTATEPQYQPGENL

[6] = target: Inosine-5'-monophosphate dehydrogenase 2 (Homo sapiens, UniProt P12268)
[7] = target: Deoxycytidine kinase (Homo sapiens, UniProt P27707)
Chain of Deoxycytidine kinase (P27707 whole entry): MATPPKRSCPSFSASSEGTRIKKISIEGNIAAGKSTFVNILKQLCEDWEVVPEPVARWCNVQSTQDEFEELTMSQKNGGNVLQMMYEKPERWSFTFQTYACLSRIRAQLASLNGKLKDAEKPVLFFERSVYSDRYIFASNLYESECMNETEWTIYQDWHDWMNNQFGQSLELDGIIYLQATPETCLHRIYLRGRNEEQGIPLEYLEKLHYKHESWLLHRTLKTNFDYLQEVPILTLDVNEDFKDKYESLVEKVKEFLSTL

[8] = target: Proto-oncogene tyrosine-protein kinase Src (Homo sapiens, UniProt P12931)
Chain of Proto-oncogene tyrosine-protein kinase Src (P12931 2-536 limits assumed): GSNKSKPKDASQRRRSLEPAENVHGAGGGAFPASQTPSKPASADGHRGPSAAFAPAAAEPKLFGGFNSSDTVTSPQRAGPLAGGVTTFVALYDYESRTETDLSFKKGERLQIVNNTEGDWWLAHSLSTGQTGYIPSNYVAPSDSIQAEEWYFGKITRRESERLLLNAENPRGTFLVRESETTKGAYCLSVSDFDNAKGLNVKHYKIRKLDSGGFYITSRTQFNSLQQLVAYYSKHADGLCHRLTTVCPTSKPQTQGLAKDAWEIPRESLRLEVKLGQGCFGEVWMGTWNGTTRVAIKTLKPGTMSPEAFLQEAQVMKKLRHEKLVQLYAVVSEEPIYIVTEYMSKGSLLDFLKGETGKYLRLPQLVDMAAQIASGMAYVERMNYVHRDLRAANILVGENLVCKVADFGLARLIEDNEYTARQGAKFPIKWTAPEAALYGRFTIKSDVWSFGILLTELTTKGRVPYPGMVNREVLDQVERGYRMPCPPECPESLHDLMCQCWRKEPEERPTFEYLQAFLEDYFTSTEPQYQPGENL

[9] = target: T3, AarF domain-containing protein kinase 1 (Homo sapiens, UniProt Q86TW2)
T3 sequence (Q86TW2 whole entry): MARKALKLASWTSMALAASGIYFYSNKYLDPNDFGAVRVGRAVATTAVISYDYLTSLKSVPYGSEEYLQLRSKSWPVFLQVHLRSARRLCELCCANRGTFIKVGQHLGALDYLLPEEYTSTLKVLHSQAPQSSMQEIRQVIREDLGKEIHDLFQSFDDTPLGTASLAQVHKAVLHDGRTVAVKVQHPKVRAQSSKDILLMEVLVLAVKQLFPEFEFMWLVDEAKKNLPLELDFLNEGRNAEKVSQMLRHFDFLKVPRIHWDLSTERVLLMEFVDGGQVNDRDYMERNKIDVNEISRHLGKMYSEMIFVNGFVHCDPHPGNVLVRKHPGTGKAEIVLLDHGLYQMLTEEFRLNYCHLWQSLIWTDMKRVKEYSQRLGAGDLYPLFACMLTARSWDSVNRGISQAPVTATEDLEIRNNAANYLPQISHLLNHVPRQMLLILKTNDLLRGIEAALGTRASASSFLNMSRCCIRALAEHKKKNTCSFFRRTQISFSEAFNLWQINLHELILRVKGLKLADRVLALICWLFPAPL

[10] = target: T4, Ferrochelatase, mitochondrial (Homo sapiens, UniProt P22830)
T4 sequence (P22830 whole entry): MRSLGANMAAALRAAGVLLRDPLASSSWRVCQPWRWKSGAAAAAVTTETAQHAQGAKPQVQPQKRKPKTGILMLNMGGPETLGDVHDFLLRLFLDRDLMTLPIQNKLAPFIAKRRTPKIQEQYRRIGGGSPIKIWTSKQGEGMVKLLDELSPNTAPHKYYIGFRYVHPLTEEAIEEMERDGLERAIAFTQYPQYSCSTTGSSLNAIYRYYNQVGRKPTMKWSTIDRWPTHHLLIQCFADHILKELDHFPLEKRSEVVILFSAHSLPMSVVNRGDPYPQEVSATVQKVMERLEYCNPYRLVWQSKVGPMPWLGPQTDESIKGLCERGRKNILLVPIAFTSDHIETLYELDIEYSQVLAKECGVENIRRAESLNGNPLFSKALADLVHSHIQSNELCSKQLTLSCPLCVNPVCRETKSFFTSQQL

Chain of Tyrosine-protein kinase CSK (P41240 whole entry): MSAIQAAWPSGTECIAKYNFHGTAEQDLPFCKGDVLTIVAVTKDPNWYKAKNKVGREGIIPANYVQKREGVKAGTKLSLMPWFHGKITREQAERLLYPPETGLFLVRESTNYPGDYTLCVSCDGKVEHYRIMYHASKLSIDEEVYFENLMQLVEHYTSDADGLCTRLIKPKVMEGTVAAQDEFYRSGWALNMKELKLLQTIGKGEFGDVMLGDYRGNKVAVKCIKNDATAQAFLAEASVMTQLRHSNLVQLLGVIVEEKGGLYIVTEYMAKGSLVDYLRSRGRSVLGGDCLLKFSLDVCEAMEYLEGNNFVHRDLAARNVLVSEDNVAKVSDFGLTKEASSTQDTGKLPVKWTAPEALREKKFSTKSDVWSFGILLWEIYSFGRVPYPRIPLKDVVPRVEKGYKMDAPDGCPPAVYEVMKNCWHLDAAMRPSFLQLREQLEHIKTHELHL

Structure (SMILES) | Kd [1] | Kd [2] | Kd [3] | Kd [4] | Kd [5] | Kd [6] | Kd [7] | Kd [8] | Kd [9] | Kd [10]
CCNC(=O)C#Cc1ccc2c(c1)NC(=O)/C2=C(\Nc1ccc(CN(C)C)cc1)c1ccccc1 | > 30 µM (inactive) | > 30 µM (inactive) | > 30 µM (inactive) | 0.059 µM (active) | 0.187 µM (active) | > 30 µM (inactive) | > 30 µM (inactive) | 0.491 µM (active) | > 30 µM (inactive) | 3.48 µM (active)
CC(C)c1cc(CNc2nc(Nc3cc(C4CC4)[nH]n3)cc(N3CCN(C)CC3)n2)on1 [XL-228] | > 30 µM (inactive) | > 30 µM (inactive) | > 30 µM (inactive) | 0.004 µM (active) | 0.023 µM (active) | > 30 µM (inactive) | > 30 µM (inactive) | 0.459 µM (active) | > 30 µM (inactive) | > 30 µM (inactive)
CO[C@H]1C[C@@H]2CC[C@@H](C)[C@@](O)(O2)C(=O)C(=O)N2CCCC[C@H]2C(=O)O[C@H]([C@H](C)C[C@@H]2CC[C@@H](O)[C@H](OC)C2)CC(=O)[C@H](C)/C=C(\C)[C@@H](O)[C@@H](OC)C(=O)[C@H](C)C[C@H](C)/C=C/C=C/C=C/1C [SIROLIMUS] | > 30 µM (inactive) | > 30 µM (inactive) | > 30 µM (inactive) | > 30 µM (inactive) | > 30 µM (inactive) | > 30 µM (inactive) | > 30 µM (inactive) | > 30 µM (inactive) | > 30 µM (inactive) | > 30 µM (inactive)
O=C(Nc1cc(C(F)(F)F)cc(C(F)(F)F)c1)c1cc(Cl)ccc1O [IMD-0354] | > 30 µM (inactive) | > 30 µM (inactive) | > 30 µM (inactive) | > 30 µM (inactive) | > 30 µM (inactive) | > 30 µM (inactive) | > 30 µM (inactive) | > 30 µM (inactive) | > 30 µM (inactive) | > 30 µM (inactive)
Cc1cc(Nc2ncnc3ccc(NC4=NC(C)(C)CO4)cc23)ccc1Oc1ccn2ncnc2c1 [TUCATINIB] | > 30 µM (inactive) | > 30 µM (inactive) | > 30 µM (inactive) | > 30 µM (inactive) | > 30 µM (inactive) | > 30 µM (inactive) | > 30 µM (inactive) | > 30 µM (inactive) | > 30 µM (inactive) | 3.91 µM (active)
O=C(Cc1ccc(-c2ccc(OCCN3CCOCC3)cc2)cn1)NCc1ccccc1 [TIRBANIBULIN] | > 30 µM (inactive) | > 30 µM (inactive) | > 30 µM (inactive) | > 30 µM (inactive) | > 30 µM (inactive) | > 30 µM (inactive) | > 30 µM (inactive) | > 30 µM (inactive) | > 30 µM (inactive) | > 30 µM (inactive)
COc1cc2ncnc(Oc3cccc(NC(=O)Nc4cc(C(C)(C)C(F)(F)F)on4)c3)c2cc1OC [CEP-32496] | > 30 µM (inactive) | > 30 µM (inactive) | > 30 µM (inactive) | > 30 µM (inactive) | > 30 µM (inactive) | > 30 µM (inactive) | > 30 µM (inactive) | > 30 µM (inactive) | > 30 µM (inactive) | > 30 µM (inactive)
Cc1cc(C(=O)NOCCO)c(Nc2ccc(I)cc2F)n(C)c1=O [AZD-8330] | > 30 µM (inactive) | > 30 µM (inactive) | > 30 µM (inactive) | > 30 µM (inactive) | > 30 µM (inactive) | > 30 µM (inactive) | > 30 µM (inactive) | > 30 µM (inactive) | > 30 µM (inactive) | > 30 µM (inactive)
C#Cc1cccc(Nc2ncnc3cc(OC)c(OCCCCCCC(=O)NO)cc23)c1 [CUDC-101] | > 30 µM (inactive) | > 30 µM (inactive) | > 30 µM (inactive) | > 30 µM (inactive) | > 30 µM (inactive) | > 30 µM (inactive) | > 30 µM (inactive) | > 30 µM (inactive) | > 30 µM (inactive) | 2.87 µM (active)
NC1(c2ccc(-c3nc4ccn5c(=O)[nH]nc5c4cc3-c3ccccc3)cc2)CCC1 [MK-2206] | > 30 µM (inactive) | > 30 µM (inactive) | > 30 µM (inactive) | > 30 µM (inactive) | > 30 µM (inactive) | > 30 µM (inactive) | > 30 µM (inactive) | > 30 µM (inactive) | > 30 µM (inactive) | 1.07 µM (active)
Cc1nc2cc(-c3nn(C(C)C)c4ncnc(N)c34)ccc2o1 | > 30 µM (inactive) | > 30 µM (inactive) | > 30 µM (inactive) | > 30 µM (inactive) | > 30 µM (inactive) | > 30 µM (inactive) | 6.17 µM | > 30 µM (inactive) | > 30 µM (inactive) | > 30 µM (inactive)
O=C1NC(=O)[C@@H](c2cn3c4c(cccc24)CCC3)[C@@H]1c1c[nH]c2ccccc12 [TIVANTINIB] | > 30 µM (inactive) | > 30 µM (inactive) | > 30 µM (inactive) | > 30 µM (inactive) | > 30 µM (inactive) | > 30 µM (inactive) | > 30 µM (inactive) | > 30 µM (inactive) | > 30 µM (inactive) | > 30 µM (inactive)
CO[C@H]1C[C@@H]2CC[C@@H](C)[C@@](O)(O2)C(=O)C(=O)N2CCCC[C@H]2C(=O)O[C@H]([C@H](C)C[C@@H]2CC[C@@H](OP(C)(C)=O)[C@H](OC)C2)CC(=O)[C@H](C)/C=C(\C)[C@@H](O)[C@@H](OC)C(=O)[C@H](C)C[C@H](C)/C=C/C=C/C=C/1C [RIDAFOROLIMUS] | > 30 µM (inactive) | > 30 µM (inactive) | > 30 µM (inactive) | > 30 µM (inactive) | > 30 µM (inactive) | > 30 µM (inactive) | > 30 µM (inactive) | > 30 µM (inactive) | > 30 µM (inactive) | > 30 µM (inactive)
